In patent publication US10350206B2, “Benzyl substituted indazoles as BUB1 inhibitors” (Bayer Pharma Aktiengesellschaft, priority 2014, dated 2019):

Legend:
[1] = system: Bub1 kinase (pre-induced phospho-histone 2A); experiment: H2A Abrogation-Assay (cell-based mechanistic assay, pre-treatment with Nocodazole); conditions: Nocodazole 1 μg/ml 16 h, then test compound 1 h; read-out: Biological Assay 4.2: H2A Abrogation IC50
Procedure: Biological Assay 4.2: Abrogation-Assay
Cell-Based Mechanistic Assay: Changes of Phosphorylation Status of Pre-Induced Phospho-Histone 2A by Inhibition of Kinase Activity of Bub1
This assay measures the inhibition of histone 2A phosphorylation, which was induced by pre-treatment of the cells with Nocodazole, by a Bub1 kinase inhibitor. 25000 cells (cells were ordered from ATCC) were seeded in 96 well plate for 5 h at 37° C. Cells were treated with Nocodazole (1 μg/ml). After 16h varying concentrations (between 3 nM and 10 μM) of test compounds were added and the cells were incubated for another 1h. Cells were fixed (20 min, Fixing solution R&D), washed three times with PBS and blocked with Odyssey blocking buffer before incubating with the primary antibody against phosphorylated H2A (5 μg/ml ABIN482721) overnight at 2-8° C. After washing, secondary IRDye-labeled antibody mix with cell stains was added for 1h and washed again with PBS. Plates were scanned with LiCor Odyssey Infrared Imager CLx at 800 nm for P-H2A and at 700 nm for cell stains Draq5/Sapphire. The quotient of 800 nm and 700 nm for Nocodazole only treated cells was set as 100% and the quotient of 800 nm and 700 nm of untreated cells was set as 0%. […] The IC50 values were determined by means of a 4 parameter fit.
(§1) Histone H2A is an immediate intracellular substrate of Bub1 kinase. Determination of the phosphorylation status of Histone H2A provides a direct measure of the intracellular activity of Bub1 kinase.

[2] = system: HeLa human cervical tumor cells; experiment: Proliferation assay (HeLa cell line); format: cell-based; conditions: 96 h, 4 days incubation, crystal violet, read-out: Biological Assay 2: Proliferation assay (HeLa cell line) median IC50
Procedure: Human tumour cells were originally obtained from the American Type Culture Collection (ATCC), the Deutsche Sammlung von Mikroorganismen und Zellkulturen (DSMZ, German Collection of Microorganisms and Cell Cultures), or Epo GmbH Berlin. Cultivated HeLa human cervical tumor cells (DSMZ ACC-57) were plated at a density of 3000 cells/well in a 96-well multititer plate in 200 μL of growth medium supplemented 10% fetal calf serum. After 24 hours, the cells of one plate (zero-point plate) were stained with crystal violet (see below), while the medium of the other plates was supplemented with the test substances in various concentrations (0 μM, as well as in the range of 0.001-10 μM; the final concentration of the solvent dimethyl sulfoxide was adjusted to 0.1%) using a Hewlett-Packard HP D300 Digital Dispenser. The cells were incubated for 4 days in the presence of test substances. […] After three washing cycles of the fixed cells with water, the plates were dried at room temperature. The cells were stained by adding 100 μL/measuring point of a 0.1% crystal violet solution (pH 3.0). After three washing cycles of the stained cells with water, the plates were dried at room temperature. The dye was dissolved by adding 100 μL/measuring point of a 10% acetic acid solution. […] The change of cell number, in percent, was calculated by normalization of the measured values to the absorption values of the zero-point plate (=0%) and the absorption of the untreated (0 μm) cells (=100%). The IC50 values were determined by means of a 4 parameter fit.

[3] = system: HeLa human cervical tumor cells; experiment: Proliferation Assay (HeLa+Paclitaxel); format: cell-based; conditions: 3 nM paclitaxel, test substance 92 hours; read-out: Biological Assay 3: Proliferation Assay (HeLa + Paclitaxel) IC50
Procedure: Proliferation Assay (HeLa+Paclitaxel):
Cultivated HeLa human cervical tumor cells (DSMZ ACC-57) were plated at a density of 3000 cells/well in a 96-well multititer plate in 200 μL of growth medium supplemented 10% fetal calf serum. After 24 hours, the cells of one plate (zero-point plate) were stained with crystal violet (see below). The medium of the other plates was supplemented with 3 nM of paclitaxel (Sigma-Aldrich) and the cells were incubated at 37° C. After 4 hours the test substances were added in various concentrations (0 μM, as well as in the range of 0.001-10 μM; the final concentration of the solvent dimethyl sulfoxide was adjusted to 0.1%) using a Hewlett-Packard HP D300 Digital Dispenser. The cells were incubated for another 92 hours at 37° C. in the presence of test substances. […] After three washing cycles of the fixed cells with water, the plates were dried at room temperature. The cells were stained by adding 100 μL/measuring point of a 0.1% crystal violet solution (pH 3.0). After three washing cycles of the stained cells with water, the plates were dried at room temperature. The dye was dissolved by adding 100 μL/measuring point of a 10% acetic acid solution. […] The change of cell number, in percent, was calculated by normalization of the measured values to the absorption values of the zero-point plate (=0%) and the 5 absorption of the untreated (0 μm) cells (=100%). The IC50 values were determined by means of a 4 parameter fit.

[4] = system: Bub1 kinase (histone 2A phosphorylation); experiment: H2A Formation-Assay (cell-based mechanistic assay, co-treatment with Nocodazole); conditions: 16 h, Nocodazole 1 μg/ml together with test compound for 16 h; read-out: Biological Assay 4.1: H2A Formation IC50
Procedure: Biological Assay 4.1: Formation-Assay
Cell-Based Mechanistic Assay: Changes of Phosphorylation Status of Histone 2A by Inhibition of Kinase Activity of Bub1
This assay determines the suppression of histone 2A phosphorylation by a Bub1 kinase inhibitor during co-treatment with Nocodazole. 25000 cells (cells were ordered from ATCC) were seeded in 96 well plate for 5 h at 37° C. Cells were treated with Nocodazole (1 μg/ml) and varying concentrations (between 3 nM and 10 μM) of test compounds for 16h. Cells were fixed (20 min, Fixing solution R&D), washed three times with PBS and blocked with Odyssey blocking buffer before incubating with the primary antibody against phosphorylated H2A (5 μg/ml ABIN482721) overnight at […]. After washing, secondary IRDye-labeled antibody mix with cell stains was added for 1h and washed again with PBS. Plates were scanned with LiCor Odyssey Infrared Imager CLx at 800 nm for P-H2A and at 700 nm for cell stains Draq5/Sapphire. The quotient of 800 nm and 700 nm for Nocodazole only treated cells was set as 100% and the quotient of 800 nm and 700 nm of untreated cells was set as 0%. […] The IC50 values were determined by means of a 4 parameter fit.
as §1

[5] = target: T1, catalytic domain of human Bub1 (amino acids 704-1085) (Homo sapiens, UniProt O43683); experiment: Bub1 kinase assay (TR-FRET); format: biochemical; conditions: 10 μM ATP, 60 min reaction, pH 7.5; read-out: Biological Assay 1: Bub1 kinase assay median IC50
T1 construct: catalytic domain of human Bub1 (amino acids 704-1085); His6 (N); made in house; host or cells: Hi5 insect cells
Procedure: To this end, 100-fold concentrated compound solutions (in DMSO) were previously prepared by serial dilution (1:3.4) of 2 mM stocks in a clear low volume 384-well source microtiter plate (Greiner Bio-One, Frickenhausen, Germany), from which 50 nL of compounds were transferred into a black low volume test microtiter plate from the same supplier. […] The resulting mixture (5 μL final volume) was incubated at 22° during 60 min., and the reaction was stopped by the addition of 5 μL of an aqueous EDTA-solution (50 mM EDTA, in 100 mM HEPES pH 7.5 and 0.2% (w/v) bovine serum albumin) which also contained the TR-FRET detection reagents (0.2 μM streptavidin-XL665 [Cisbio Bioassays, Codolet, France] and 1 nM anti-phosho-Serine antibody [Merck Millipore, cat. #35-001] and 0.4 nM LANCE EU-W1024 labeled anti-mouse IgG antibody [Perkin-Elmer, product no. AD0077, alternatively a Terbium-cryptate-labeled anti-mouse IgG antibody from Cisbio Bioassays can be used]). The stopped reaction mixture was further incubated 1 h at 22° C. in order to allow the formation of complexes between peptides and detection reagents. Subsequently, the amount of product was evaluated by measurement of the resonance energy transfer from the Eu-chelate-antibody complex recognizing the Phosphoserine residue to the streptavidin-XL665 bound to the biotin moiety of the peptide. […] IC50 values were calculated by fitting the normalized inhibition data to a 4-parameter logistic equation (Minimum, Maximum, IC50, Hill; Y=Max+(Min−Max)/(1+(X/IC50)Hill)).

T1 sequence (O43683 704-1085): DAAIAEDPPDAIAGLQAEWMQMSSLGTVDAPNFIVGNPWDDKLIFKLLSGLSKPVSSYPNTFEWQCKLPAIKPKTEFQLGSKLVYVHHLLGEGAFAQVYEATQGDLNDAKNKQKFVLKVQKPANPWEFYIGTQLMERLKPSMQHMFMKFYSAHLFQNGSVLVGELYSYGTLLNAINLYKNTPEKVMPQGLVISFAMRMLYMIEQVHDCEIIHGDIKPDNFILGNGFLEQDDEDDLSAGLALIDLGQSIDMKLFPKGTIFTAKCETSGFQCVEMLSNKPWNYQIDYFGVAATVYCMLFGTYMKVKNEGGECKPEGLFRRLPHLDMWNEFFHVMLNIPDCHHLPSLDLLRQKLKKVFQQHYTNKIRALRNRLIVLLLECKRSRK

SMILES | IC50 [1] [nM] | IC50 [2] [µM] | IC50 [3] [nM] | IC50 [4] [nM] | IC50 [5] [nM]
COc1cnc(-c2nn(Cc3c(F)cc(OCCO)cc3F)c3ccccc23)nc1Nc1ccnc(F)c1 [Example 2-1-11, 2-{3,5-difluoro-4-[(3-{4-[(2-fluoropyridin-4-yl)amino]-5-methoxypyrimidin-2-yl}-1H-indazol-1-yl)methyl]phenoxy}ethanol] | 5.2 | 5.1 | 110 | 4.9 | 19
COc1cnc(-c2nn(Cc3c(F)cc(OCCO)cc3F)c3ccccc23)nc1Nc1cc(C)ncc1F [Example 2-1-12, 2-{3,5-difluoro-4-[(3-{4-[(5-fluoro-2-methylpyridin-4-yl)amino]-5-methoxypyrimidin-2-yl}-1H-indazol-1-yl)methyl]phenoxy}ethanol] | 11 | > 10 | 420 | 6 | 33
COc1cnc(-c2nn(Cc3c(F)cc(OCCO)cc3F)c3ccccc23)nc1Nc1ccncn1 [Example 2-1-13, 2-[3,5-difluoro-4-({3-[5-methoxy-4-(pyrimidin-4-ylamino)pyrimidin-2-yl]-1H-indazol-1-yl}methyl)phenoxy]ethanol] | 2.7 | > 10 | 510 | 18 | 5
COc1cnc(-c2nn(Cc3c(F)cc(OCCO)cc3F)c3ccccc23)nc1Nc1cc(NC(C)=O)ncc1C [Example 2-1-14, N-{4-[(2-{1-[2,6-difluoro-4-(2-hydroxyethoxy)benzyl]-1H-indazol-3-yl}-5-methoxypyrimidin-4-yl)amino]-5-methylpyridin-2-yl}acetamide] | 11 | 1.5 | 1100 | 39 | 420

The remaining compounds from weak to strong by IC50 [1], led by results:

IC50 [1] [nM] | IC50 [2] [µM] | IC50 [3] [nM] | IC50 [4] [nM] | IC50 [5] [nM] | SMILES
890 | 8.5 | 370 | 56 | 7.7 | COc1cnc(-c2nn(Cc3c(F)cc(OCCO)cc3F)c3ccccc23)nc1Nc1ccncc1F [Example 2-1-6, 2-{3,5-difluoro-4-[(3-{4-[(3-fluoropyridin-4-yl)amino]-5-methoxypyrimidin-2-yl}-1H-indazol-1-yl)methyl]phenoxy}ethanol]
310 | > 10 | 200 | 210 | 55 | COc1cnc(-c2nn(Cc3c(F)cc(OCCCO)cc3F)c3ccccc23)nc1Nc1ccnc(C)n1 [Example 2-3-3, 3-{3,5-difluoro-4-[(3-{5-methoxy-4-[(2-methylpyrimidin-4-yl)amino]pyrimidin-2-yl}-1H-indazol-1-yl)methyl]phenoxy}propan-1-ol]
74 | 3.1 | 300 | 87 | 17 | COc1cnc(-c2nn(Cc3c(F)cc(OCCO)cc3F)c3ccccc23)nc1Nc1ccnc(NC(=O)NC2CC2)c1 [Example 2-1-16, 1-cyclopropyl-3-{4-[(2-{1-[2,6-difluoro-4-(2-hydroxyethoxy)benzyl]-1H-indazol-3-yl}-5-methoxypyrimidin-4-yl)amino]pyridin-2-yl}urea]
2.1 | 1.4 | 51 | 35 | 14 | COc1cnc(-c2nn(Cc3c(F)cc(OCCO)cc3F)c3ccccc23)nc1Nc1ccnc(C)c1OC [Example 2-1-18, 2-{3,5-difluoro-4-[(3-{5-methoxy-4-[(3-methoxy-2-methylpyridin-4-yl)amino]pyrimidin-2-yl}-1H-indazol-1-yl)methyl]phenoxy}ethanol]
1.2 | > 10 | 360 | 24 | 9.8 | COc1cnc(-c2nn(Cc3c(F)cc(OCCO)cc3F)c3ccccc23)nc1Nc1ccnc(NC(=O)C2CC2)c1 [Example 2-1-15, N-{4-[(2-{1-[2,6-difluoro-4-(2-hydroxyethoxy)benzyl]-1H-indazol-3-yl}-5-methoxy-pyrimidin-4-yl)amino]pyridin-2-yl}cyclopropanecarboxamide]
0.72 | > 10 | 72 | 38 | 15 | COc1cnc(-c2nn(Cc3c(F)cc(OCCCO)cc3F)c3ccccc23)nc1Nc1cc(C)ncc1C [Example 2-3-1, 3-{4-[(3-{4-[(2,5-dimethylpyridin-4-yl)amino]-5-methoxypyrimidin-2-yl}-1 H-indazol-1-yl)methyl]-3,5-difluorophenoxy}propan-1-ol]
